This is an account of results in patent US20120142596A1, “AGENT FOR STIMULATING MOBILIZATION OF ENDOTHELIAL PROGENITOR CELLS” (priority 2009, published 2012).

Data set [1] concerns endothelial progenitor cells. In words: EPC mobilization to peripheral blood after intravenous administration (EPC colony count). It counts as in vivo, New Zealand white rabbits. To be noted: rabbit, 5 nmole/kg i.v. twice (0 and 24 h), blood 3 days after first injection, 2 weeks culture, vs PBS control. The method, then:
Ketamine hydrochloride (50 mg/ml Yuhan, Korea) and Rompun (xylazine hydrochloride, 23.32 mg/ml Bayer Korea) were mixed at a ratio of 2:1, and then 900 μl of the mixture (600 μl of ketamine hydrochloride and 300 μl of Rompun) was injected intramuscularly into New Zealand white rabbits (male, 2.5 kg, n=3). 10 minutes after the intramuscular injection, the same anesthetic (200 μl of ketamine hydrochloride and 100 μl of Rompun) was injected intravenously into the ear vein of each rabbit to completely anesthetize the rabbits. Then, 5 nmole/kg of SP was dissolved in physiological saline solution, and 1 ml of the solution was administered slowly into the ear vein of one rabbit group. As a control, 1 ml of 1×PBS was administered into the ear vein of another rabbit group. 24 hours after the administration, the same amount of each of SP and 1×PBS was injected once more.
3 days after the first injection, peripheral blood was collected from the ear blood vessels of the rabbits, and 10 ml of the collected blood was two-fold diluted in PBS, and then carefully placed on Ficoll contained in a tube (Ficoll: peripheral blood=1:1 v/v). Next, the blood dilution was centrifuged at 2200 rpm for 25 minutes. As a result, a red blood cell (RBC) layer, a ficoll layer, a mononuclear cell layer and a plasma layer, from bottom to top, were formed. […]

For data set [2], the system named is EPCs. Nature of the data set: Immunohistochemical staining of cells cultured from peripheral blood with EPC markers CD34 and UEA. It counts as cell-based, New Zealand white rabbits. To be noted: cells cultured from peripheral blood after intravenous SP, fluorescence microscopy. As to the method: In order to examine the presence of EPCs in peripheral blood using the EPC markers CD34 and UEA, EPCs (2×10^4 cells/well) that have been isolated and cultured from the above blood were incubated on cover slips for CD34 test and UEA test, respectively. After incubation in a 5% CO2 incubator at 37° C. for 24 hours, the cells were washed with PBS. Then, the cells were fixed with 3.7% paraformaldehyde and washed again with PBS.
The washed cells were blocked with 20% goat serum and treated with anti-CD 34 antibody at room temperature for 1 hour. Then, the cells were washed again with PBS and treated with FITC-conjugated anti-mouse IgG at room temperature for 1 hour. To remove excess of antibodies, the cells were washed with PBS, counterstained with DAPI, and then mounted.
The washed cells were blocked with 20% goat serum and treated with UEA-biotin at room temperature for 1 hour. Then, the cells were washed again with PBS and treated with streptavidin-FITC at room temperature for 1 hour. The cells were washed with PBS, counterstained with DAPI, and then mounted.
For negative control in immune fluorescence staining, cultured cells were treated with only secondary antibody, and the expression thereof was observed (FIG. 2C).

The test system of data set [3] is EPCs. Nature of the data set: Ability to form tubes in vitro on Matrigel of EPCs cultured from blood after SP. It counts as cell-based, New Zealand white rabbits. The settings on record: EPCs from peripheral blood after intravenous SP, 12 hours. As to the method: In order to examine the blood vessel-forming ability of the EPCs that have been isolated and cultured from the blood, the cells were cultured on Matrigel (BD). For this purpose, 200 μl of Matrigel was added to each well of a 96-well plate and incubated at 37° C. for 30 minutes. The cells were added to each well containing Matrigel at a density of 2×10^4 and cultured for 12 hours. When mesenchymal stem cells (MSCs) were cultured in the same manner as described above, colonies were formed as shown in FIG. 4B.

In data set [4] the test system is endothelial progenitor cells. Nature of the data set: EPC CFU in bone marrow aspirate after intra-bone marrow administration. It counts as in vivo, New Zealand white rabbits. The settings on record: rabbit, intra-bone marrow injection, bone marrow aspirate 24 hours after injection, 1 week culture; for increase in amount of mobilized EPCs (CFU) compared to negative control group: SP 4 nmole/kg, G-CSF 2.5 μg/kg. As to the method:
Ketamine hydrochloride (50 mg/ml Yuhan, Korea) and Rompun (xylazine hydrochloride, 23.32 mg/ml Bayer Korea) were mixed at a ratio of 2:1, and then 900 μl of the mixture (600 μl of ketamine hydrochloride and 300 μl of Rompun) was injected intramuscularly into New Zealand white rabbits (male, 2.5 kg, n=4). 5 minutes after the intramuscular injection, the same anesthetic (200 μl of ketamine hydrochloride and 100 μl of Rompun) was injected intravenously into the ear of each rabbit to completely anesthetize the rabbits.
SP (Sigma, 4 nmole/kg in saline) was injected into the right iliac crest of one rabbit group at an injection volume of 0.1 ml using a 18G spinal needle.
As a negative control, 1×PBS was injected into the left iliac crest of another rabbit group at an injection volume of 0.1 ml using a 18G spinal needle. As a positive control, G-CSF (CJ Pharma Leukokine Inj. 150; 2.5 μg/kg) was injected into the right iliac crest at an injection volume of 0.1 ml using a 18G spinal needle.
24 hours after the injection, 4 ml of a bone marrow aspirate was isolated from the bone marrow, two-fold diluted in PBS, and then carefully placed on Ficoll (GE Health care) contained in a tube (Ficoll: bone marrow aspirate=1:1 v/v). Then, the cell dilution was centrifuged at 2200 rpm for 25 minutes. As a result, a red blood cell layer, a ficoll layer, a mononuclear cell layer and a plasma layer, from bottom to top, were formed. After removing the plasma layer, only the mononuclear cell layer was separated and transferred into a new tube. 30 ml of PBS was added to the obtained mononuclear cell layer and centrifuged again (washing step).
The isolated cells were seeded on a 100-mm dish (Falcon) coated with fibronectin and were cultured in EGM-2 (Endothelial growth medium-2, Lonza) for 1 week (5% CO2 and 37° C.). After the culture, the CFU of the cells was measured and compared with those of the group injected with PBS and the group injected with the positive control G-CSF.

For data set [5], the system named is endothelial progenitor cells. In words: Comparison of EPC colony formation in peripheral blood after intravenous administration of SP and G-CSF. In kind it is in vivo, New Zealand white rabbits. To be noted: rabbit. The method, then: (§1) According to the same method described in Example 1-(1), 0.1 ml of SP was administered to one rabbit group (New Zealand white rabbits, male, 2.5 kg, n=3), and 0.1 ml of G-CSF (CJ Pharma, Leukokine inj. 150; 2.5 μg/kg) as a positive control was administered to another rabbit group (New Zealand white rabbits, male, 2.5 kg, n=3). 1, 2 and 3 days after the administration, 5-15 ml of peripheral blood was isolated from each animal group. The isolated blood was two-fold diluted in PBS and carefully placed on Ficoll contained in a tube (Ficoll: peripheral blood=1:1 v/v). Then, the cell dilution was centrifuged at 2200 rpm for 25 minutes. The uppermost plasma layer was removed, and only the mononuclear cell layer was separated from the tube and transferred into a new tube. 30 ml of PBS was added to the obtained mononuclear cell layer and centrifuged at 1500 rpm for 5 minutes (washing step). The cells were suspended in EGM-2 (endothelial growth medium-2, Lonza), and the suspended cells were seeded on a 100-mm dish (Falcon) coated with fibronectin and were cultured in EGM-2 (endothelial growth medium-2, Lonza) for 2 weeks (5% CO2 and 37° C.). After the culture, the produced colonies were stained with toluidine blue and counted.

For data set [6], the system named is endothelial progenitor cells. In words: Comparison of EPC colony formation in peripheral blood after intra-bone marrow administration of SP and G-CSF. In kind it is in vivo, New Zealand white rabbits. To be noted: rabbit, intra-bone marrow administration, 1, 2 and 3 days, compared to G-CSF. As to the method:
as §1, with “2-(2),” for “1-(1),”

The test system of data set [7] is inflammatory cells (neutrophils, eosinophils and monocytes). In words: Complete blood cell count of peripheral blood after intra-bone marrow administration. In kind it is in vivo, New Zealand white rabbits. The settings on record: rabbit, intra-bone marrow administration, 1, 2 and 3 days.
Data set [8] relates to inflammatory cells (neutrophils and monocytes). In words: Complete blood cell count of peripheral blood after intravenous administration. It counts as in vivo, New Zealand white rabbits. To be noted: rabbit, intravenous administration, 1, 2 and 3 days, vs PBS control. As to the method:
1 ml of each of the peripheral bloods obtained 1, 2 and 3 days after intravenous administration of SP and G-CSF was placed in an EDTA-containing vial and mixed well to prevent clotting. In the experiment for isolating EPCs from blood cells, the complete blood cell counting of each blood was performed by Royal ARC (Korea) under the same conditions for each blood.

Take Substance-P [SP]: the “amount of EPCs in peripheral blood (colonies)” value in data set [1] is reported as “significantly increased”. The “presence of EPCs in peripheral blood by EPC markers CD34 and UEA” value in the data set with EPCs [2] is listed as “contained a large amount of EPCs”. Also, in the data set with EPCs [3], the “ability to form tubes in vitro” value is “had the ability to form blood vessels”. Further, in data set [4], the “increase in amount of mobilized EPCs (CFU) compared to group administered with positive control G-CSF” value was “about 3 fold” and the “increase in amount of mobilized EPCs (CFU) compared to negative control group” value is 10-12 fold. Further, the “amount of EPCs in peripheral blood over 1, 2 and 3 days” value in data set [5] (days 1-3) is given as “continuously increased”. In data set [6], the “effect of stimulating EPC mobilization (EPC colonies in peripheral blood)” value is on record as “excellent effect of stimulating EPC mobilization compared to G-CSF”. Further, the “inflammatory cells (neutrophils, eosinophils and monocytes) in peripheral blood” value in data set [7] is “without causing side effects such as inflammation”.

B1: G-CSF: positive control, CJ Pharma Leukokine Inj. 150; known EPC mobilization factor (protein, UniProt P09919 31-207, looked up)
Granulocyte …: TPLGPASSLPQSFLLKCLEQVRKIQGDGAALQEKLVSECATYKLCHPEELVLLGHSLGIPWAPLSSCPSQALQLAGCLSQLHSGLFLYQGLLQALEGISPELGPTLDTLQLDVADFATTIWQQMEELGMAPALQPTQGAMPAFASAFQRRAGGVLVASHLQSFLEVSYRVLRHLAQP
As for B1, the “increase in amount of mobilized EPCs (CFU) compared to negative control group” value in data set [4] is recorded as “about 4 fold”. For the same molecule, in data set [5] (after the second day), the “EPCs in peripheral blood after the second day” value was “no EPCs were found”. For the same molecule, the “EPCs in peripheral blood at the first day” value in data set [5] (day 1) is listed as “temporarily increased”. In addition, in data set [8], the “inflammatory cells (neutrophils and monocytes) in peripheral blood” value is recorded as “significantly increased”. Moreover, the “inflammatory cells (neutrophils, eosinophils and monocytes) in peripheral blood” value in data set [7] is reported as “significantly increased”.
